Reference: publication PMC5634595, “Properties of halogenated and sulfonated porphyrins relevant for the selection of photosensitizers in anticancer and antimicrobial therapies” (PLoS ONE, 2017)
Read-outs that look alike come from different tables or passages of the source.

Key:
[1] = UV/Vis absorption spectra, molar absorption coefficients; assay type: physicochemical; conditions: EtOH; for Absorption λmax, B(0,0): Soret band
Method: All commercial chemicals and reagents were of analytical grade and were purchased from Sigma-Aldrich. UV/Vis absorption spectra were recorded in a Hewlett Packard HP8453 spectrophotometer. Solutions containing samples of photosensitizers were dissolved in the selected solvent in quartz cuvettes. Using measured absorbance for various concentrations of porphyrin in ethanol, the molar absorption coefficients were determined from Beer’s law.

[2] = Fluorescence emission and fluorescence quantum yield (comparative method); assay type: physicochemical; conditions: EtOH, TPP as standard
Method: (§1) Fluorescence emission spectra were recorded from 550 nm to 750 nm with excitation at Soret band (λ≈420 nm). The excitation and emission slits were both set to 8 nm and scanning speed to 50 nm/min. Fluorescence spectra were recorded with a Perkin Elmer Fluorescence Spectrometer LS 55. Determination of fluorescence quantum yields: ΦF of studied photosensitizers was determined using the comparative method according to the equation: ΦF=ΦFStd⋅FAStdn^2/FStdAnStd2, (1) where F and FStd are the areas under the fluorescence emission curves of the sample and the standard, A and AStd are the absorbance of the sample and the standard and n are the refractive indices of the solvent used for the sample and the standard, respectively. Commercially available tetraphenylporphyrin TPP (Std) (ΦF = 0.10 in toluene) was employed as the standard. The absorbance of the solutions at the excitation wavelength was in the range of 0.02. Singlet oxygen quantum yields were determined based on the relative phosphorescence emissions of singlet oxygen generated by a reference and by each one of the porphyrins, using a method described elsewhere. Briefly, a modified Applied Photophysics LKS.60 flash photolysis spectrometer with a Hamamatsu NIR photomultiplier for detection and HP Infinium (500 MHz, 1GSas^-1) or Tektronix DPO 7254 (2.5 GHz, 40GSas^-1) oscilloscopes were used. The adaptation of this spectrometer allowed for the detection of singlet oxygen phosphorescence at room temperature. This emission was detected using a Hamamatsu R5509–42 photomultiplier, cooled to 193 K in a liquid nitrogen chamber. […] The modification of the spectrometer for time-resolved singlet oxygen phosphorescence measurements involved the interposition of a Melles Griot cold mirror (03MCS005), which reflects more than 99% of the incident light in the 400–700 nm range, and of a Scotch RG665 filter. A 600 line diffraction grating was mounted in place of a standard one. […] Solutions of photosensitizers were prepared with matched absorbances close to 0.2 at 355 nm. […]

[3] = Singlet oxygen quantum yield by phosphorescence at 1270 nm; assay type: physicochemical; conditions: EtOH, phenalenone as reference
Method: as §1

[4] = n-Octanol/PBS partition coefficient, shake-flask; assay type: physicochemical; conditions: modified shake-flask
Method: The n-octanol/PBS partition coefficients were measured following shake-flask method with minor modifications. The photosensitizers were dissolved in n-octanol previously saturated with a solution of PBS. The same volume of PBS saturated with n-octanol was added and mixed on a vortex device and then the phases were separated by centrifugation. Next, the PBS/n-octanol phase was taken and diluted to obtain 0.5% of PBS/n-octanol content in the final solution. This solution was left into the ultrasonic bath. The fluorescence of each solution was measured using Fluorescence Spectrometer LS 55 (Perkin Elmer) and compared with calibration curve to obtain the concentration of the photosensitizer. Partition coefficients were calculated from the ratio coct/cPBS, where coct and cPBS are the concentrations of the porphyrin derivatives in the n-octanol and in the PBS.

HSA = HSA (Homo sapiens, UniProt P02768); assay: Binding to HSA by fluorescence quenching (Stern-Volmer, Scatchard); conditions: for KSV (Stern-Volmer constant), HSA: HSA fluorescence quenching, PBS, room temperature; for n (number of binding sites), HSA: Scatchard analysis
Method: The binding of the PS to HSA was studied by spectrofluorometry at room temperature. An aqueous (phosphate buffer saline, PBS) solution of HSA was titrated with varying concentrations of the respective porphyrin solutions. HSA was excited at 295 nm and fluorescence was recorded between 300 nm and 400 nm. The systematic lowering of HSA fluorescence with increasing photosensitizer concentrations was noted and used in the determination of the binding constants and the number of binding sites on HSA according to Scatchard equation. The changes in HSA fluorescence intensity were related to porphyrin concentrations by the Stern-Volmer relationship. The binding constant (Kb) of PS to lipoproteins was also determined using the spectroscopic titration method. The sets of steady-state emission spectra of PBS solutions with different concentrations of HDL and LDL, to which the porphyrin (5 μM) was added were measured. The fluorescence intensity of the dye increased upon its partitioning into the lipoproteins. To obtain Kb, F versus [L] data were plotted and fitted to by a nonlinear regression routine.

[5] = tested on: P. aeruginosa (ATCC19660); assay: Photodynamic inactivation of microorganisms, CFU; assay type: cell-based; conditions: PDI 10 J/cm^2, 420±20 nm, concentration not given
Method: (§2) The microorganisms used in PDI were: S. aureus (8325–4), E. faecalis (ATCC29212), E. coli (K12), P. aeruginosa (ATCC19660), S. marcescens (ATCC14756) and C. albicans (DAY286). The planctonic bacteria cells were cultured in brain heart infusion broth (Sigma-Aldrich) and LB Broth/Lennox (BioShop Lab Science Products) in an orbital incubator (37°C, 130 rpm), until the optical density reached 0.5, which corresponds to approximately 10^7 CFU per mL. The fungal yeasts were cultured in YPD Broth (BioShop) with overnight aeration at 30°C to reach ca. 10^6 CFU/mL. For PDI experiments cell suspensions of bacteria or fungal yeasts were incubated with various concentrations of the porphyrins at pH 7.4 (PBS) for 1 h in the dark at room temperature. Aliquots (1 mL) were transferred to a 12-well plate and illuminated with a blue light. We used blue-LED array (420±20 nm) to deliver a light dose of 10 J/cm^2 (measured with a power meter). Cells treated with photosensitizers in the dark were incubated covered with aluminum foil for the same time as the PDI groups (1 h). After illumination (or dark incubation) samples were shaken, diluted in PBS, mixed and plated (LB agar). Aliquots were taken from each well to determine the CFU value. Plates were streaked in triplicate and incubated for 12–36 h at 30 °C (for fungal yeasts) or 37 °C (for bacteria) in the dark to allow colony formation.

E. coli (K12) = assay: Photodynamic inactivation of microorganisms, CFU; assay type: cell-based; conditions: PDI 10 J/cm^2, 420±20 nm, concentration not given
Method: as §2

[6] = Photodegradation (photostability) under xenon lamp irradiation; assay type: physicochemical; conditions: same irradiation conditions as in the biological studies
Method: The photostability of porphyrins was investigated following the measurement of their optical absorption in aqueous solutions. Continuous irradiation of an aerated solution were carried out using the xenon lamp (XBO-150) through the 10 cm water filter and bandpass filter transmitting within >400 nm range, delivering 75 mW/cm^2. The reaction progress was monitored by UV/Vis spectroscopy using a Hewlett Packard HP8453 spectrophotometer.

[7] = design: method as in earlier work; conditions: non-halogenated standard, in toluene; cited from earlier work
[8] = reference compound, in ethanol; cited from earlier work

Sequence of HSA (P02768 25-609): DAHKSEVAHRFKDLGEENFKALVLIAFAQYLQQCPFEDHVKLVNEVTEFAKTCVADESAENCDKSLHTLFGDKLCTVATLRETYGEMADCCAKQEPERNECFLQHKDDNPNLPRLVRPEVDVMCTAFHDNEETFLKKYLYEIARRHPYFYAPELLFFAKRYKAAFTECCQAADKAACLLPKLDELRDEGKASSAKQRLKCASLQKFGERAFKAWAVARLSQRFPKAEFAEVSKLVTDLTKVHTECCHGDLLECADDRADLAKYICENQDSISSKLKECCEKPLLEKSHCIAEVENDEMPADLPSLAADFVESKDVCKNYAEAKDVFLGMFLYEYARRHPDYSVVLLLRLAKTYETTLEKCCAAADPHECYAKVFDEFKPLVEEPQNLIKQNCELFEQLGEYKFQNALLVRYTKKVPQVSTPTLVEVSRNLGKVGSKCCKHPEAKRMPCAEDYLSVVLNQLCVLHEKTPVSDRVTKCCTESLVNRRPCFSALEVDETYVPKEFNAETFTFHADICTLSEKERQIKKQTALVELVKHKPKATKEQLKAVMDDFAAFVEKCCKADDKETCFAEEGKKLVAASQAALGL

| Compound | Absorption λmax, Qx (0,1) [1] [nm] | Absorption λmax, Qx(0,0) [1] [nm] | Absorption λmax, Qy (0,0) [1] [nm] | Absorption λmax, Qy (0,1) [1] [nm] | Absorption λmax, B(0,0) [1] [nm] | Fluorescence quantum yield ΦF [2] | Singlet oxygen quantum yield ΦΔ [3] | logP [4] | KSV (Stern-Volmer constant), HSA (HSA) | n (number of binding sites), HSA (HSA) | Decrease in survival / bacteria CFU killing [5] | also measured |
| --- | --- | --- | --- | --- | --- | --- | --- | --- | --- | --- | --- | --- |
| CCNS(=O)(=O)c1ccc(Cl)c(-c2c3nc(c(-c4c(Cl)ccc(S(=O)(=O)NCC)c4Cl)c4ccc([nH]4)c(-c4c(Cl)ccc(S(=O)(=O)NCC)c4Cl)c4nc(c(-c5c(Cl)ccc(S(=O)(=O)NCC)c5Cl)c5ccc2[nH]5)C=C4)C=C3)c1Cl [Cl2PEt, 5,10,15,20-tetrakis(2,6-dichloro-3-N-ethylsulfamoylphenyl)porphyrin] | 592 | 646 | 546 | 514 | 418 | 0.017 | 0.85 | 1.84 | 6.62 10^5M^-1 | 1 | up to 3 logs |  |
| O=S(=O)(O)c1ccc(Cl)c(-c2c3nc(c(-c4c(Cl)ccc(S(=O)(=O)O)c4Cl)c4ccc([nH]4)c(-c4c(Cl)ccc(S(=O)(=O)O)c4Cl)c4nc(c(-c5c(Cl)ccc(S(=O)(=O)O)c5Cl)c5ccc2[nH]5)C=C4)C=C3)c1Cl [Cl2POH, 5,10,15,20-tetrakis(2,6-dichloro-3-sulfophenyl)porphyrin] | 592 | 646 | 546 | 514 | 420 | 0.015 | 0.98 | -1.8 | 4.66 10^5M^-1 | 1 | 1.5–2 logs | Decrease in survival (E. coli (K12)): 1.5–2 logs |
| C=CC1=C(C)c2cc3[nH]c(cc4nc(cc5[nH]c(cc1n2)c(C)c5CCC(=O)O)C(CCC(=O)O)=C4C)c(C)c3C=C [PpIX] |  |  |  |  |  |  |  |  |  |  |  | Photostability (Soret band absorbance during irradiation) [6]: more prone to photooxidation |
| C1=Cc2nc1c(-c1ccccc1)c1nc(c(-c3ccccc3)c3ccc([nH]3)c(-c3ccccc3)c3ccc([nH]3)c2-c2ccccc2)C=C1 [TPP, tetraphenylporphyrin] |  |  |  |  |  |  |  |  |  |  |  | Fluorescence quantum yield ΦF [7]: 0.10 |
| O=C1C=Cc2cccc3cccc1c23 [phenalenone] |  |  |  |  |  |  |  |  |  |  |  | Singlet oxygen quantum yield ΦΔ [8]: 0.95 ± 0.02 |
